Laboratory results as given in US6916471B2, “Red blood cells loaded with S-nitrosothiol and uses therefor” (Duke University, priority 1995, dated 2005).

Tests used:
rabbit aortic ring [1] = experiment: Rabbit aortic ring bioassay of CYSNO-treated blood with or without glutathione; details: 100 μM
Procedure: NO-loaded red blood cells were produced by incubating whole human blood in a solution comprising S-nitrosocysteine (CYSNO) at a molar ratio of 1:100 CYSNO:hemoglobin for 5 minutes at room temperature. The bioactivity of the treated blood was tested in a rabbit aortic ring bioassay, in the presence (+GSH) or absence (−GSH) of 100 μM glutathione.

Sprague-Dawley rat = experiment: Mean arterial pressure after femoral vein injection of loaded red blood cells; format: in vivo; details: 50 mg/kg
Description: Systemic administration of cell-free Hb results in hypertensive responses which have been attributed to NO scavenging by the heme (Vogel, W. M., et al., Am. J. Physiol. 251:H413-H420 (1986); Olsen, S. B., et al., Circulation 93:329-332 (1996)). To determine if SNO-Hb is free of this adverse affect, and to explore if in vitro mechanisms of NO release extend to the in vivo circumstance, we compared responses to Hb and SNO-Hb infused as a bolus into the femoral vein of anesthetized rats. […] Thus, the profiles of these compounds in vivo closely resemble those seen in vitro (FIG. 4A). […] These changes in mean blood pressure of ˜10% are on the order of those that differentiate normotension from hypertension in man, and in the therapeutic range of some antihypertensive regimens. […] The bioactivity of SNO-Hb in blood, where S—NO/heme stoichiometries approach 1:50,000, is a dramatic illustration of the resistence of this NO-related activity to Hb(Fe) inactivation. […]
Rats were anesthetized by intraperitoneal injection of pentobarbital and the femoral arteries and veins accessed by local cut down. The artery was then cannulated and the blood pressure monitored continuously using a Viggo Spectramed pressure transducer attached to a Gould recorder. […]

[2] = Endogenous SNO-Hb and Hb(FeII)NO in blood by photolysis-chemiluminescence; format: in vivo, rat; details: 45 minutes after infusion, 50 mg/kg
Description: To determine if SNO-Hb is naturally occuring in the blood, and if so, its relationship to the O2 transport capacity and nitrosylated-heme content of red cells, we developed an analytical approach to assay the S-nitrosothiol and nitrosyl-heme content of erythrocytes (Table 2). […] Hb was then purified from red cells and assayed for RSNO and (FeII)NO content. Arterial blood contained significant levels of SNO-Hb, whereas levels were virtually undetectable in venous blood (Table 2). […] The arterial-venous distribution seen for SNO-Hb was reversed in the case of Hb(FeII)NO, which was detected in higher concentrations in partially deoxygenated (venous) erythrocytes (Table 2). […] However, levels of Hb(FeII)NO in vivo are typically too low to be detected (by EPR) and SNO-Hb is EPR-silent (i.e. it is not paramagnetic). Thus, photolysis-chemiluminesence represents an important technological advance, as it is the first methodology capable of making quantitative and functional assessments of NO binding to Hb under normal physiological conditions.
Blood was obtained from the left ventricle (arterial) and jugular vein (venous) of anesthetized Sprague-Dawley rats. […] In 24 rats, Hb samples were divided in two aliquots which were then treated or not treated with 10-fold excess HgCl2 over protein concentration as measured by the method of Bradford. […]

rabbit aortic ring [3] = experiment: CysNOEE-treated human blood, rabbit aortic ring bioassay; details: CysNOEE:heme 1:100 to 10:1; 21% and 1% oxygen
Procedure: S-nitrosocysteine ethyl ester (CysNOEE) was added to human whole blood to interact with the red blood cells. CysNOEE:Heme (see FIG. 22) is the molar ratio of CysNOEE to heme in hemoglobin contained in red blood cells, for CysNOEE incubated with blood for 5 minutes at room temperature. After these incubations at different CysNOEE:heme ratios (1:100, 1:10, 1:1 and 10:1; see FIG. 22), red blood cell membranes were isolated by lysis and centrifugation, and S-nitrosothiol (SNO) content of the isolated membranes was determined by photolysis chemiluminescence assay. The concentrations of SNO in the red blood cell membranes were plotted in FIG. 22 as membrane SNO. Bioactivity of red blood cells—from release of biologically active NO—was determined in a rabbit aortic ring bioassay under two different concentrations of oxygen, and the results are plotted in FIG. 22 as 21% oxygen, vasoactivity, and 1% oxygen, vasoactivity.

rabbit aortic ring [4] = experiment: Rabbit aortic ring perfused with blood of PPH patient after ethyl nitrite; details: 1% oxygen
Description: The downward deflection on the plot indicates a dilation of the blood vessel, which for the “NO” blood, occurred for approximately 30 seconds.

[5] = tested on: patient with primary pulmonary hypertension; experiment: Inhaled ethyl nitrite in patients with primary pulmonary hypertension, red blood cell NO; format: in vivo, human; details: PPH patients
Procedure: A patient with primary pulmonary hypertension, with blood having starting values for SNO-hemoglobin, iron nitrosylhemoglobin and total NO/hemoglobin molar ratio as shown in the left bar of FIG. 15, was given an NO-donating drug by inhalation. Ethyl nitrite was diluted in ethanol. Oxygen carrier gas was passed though the ethyl nitrite solution and delivered to the patient at 10 liters/min. After 10 minutes, blood was withdrawn and analyzed by photolysis chemoluminescence. Results are shown in the right bar of FIG. 15, for the patient's blood after treatment. SNO-Hb and total Hb-bound NO levels were depressed in the patient relative to normal controls, but rose during inhalation of ethyl nitrite gas. The experiment was repeated for other patients (n=5).

Compound: N[C@@H](CCC(=O)N[C@@H](CS)C(=O)NCC(=O)O)C(=O)O [Glutathione, glutathione]
- effect on red blood cell-mediated vasodilation (rabbit aortic ring [1]): potentiates the bioactivity of red blood cell-mediated vasodilation

Compound: CNC(=N)NCCC[C@H](N)C(=O)O [L-NMMA, N^G-monomethyl-L-arginine]
- increase in blood pressure (Sprague-Dawley rat): about 20 mm Hg
- depletion of SNO-Hb [2]: 82%
- depletion of total Hb-NO [2]: 50±18%

Compound: CCOC(=O)[C@@H](N)CSN=O [S-nitrosocysteine ethyl ester]
- vasoactivity of treated red blood cells (rabbit aortic ring [3]): relaxes blood vessels, most effectively under ischemic conditions

Compound: CCON=O [ethyl nitrite]
- duration of dilation of aortic ring by blood of treated patient (rabbit aortic ring [4]): approximately 30 seconds
- increase in SNO-Hb in blood ([5]; inhaled for 10 minutes, n=5): statistically significant
- levels of iron nitrosylhemoglobin before and after treatment ([5]; inhaled for 10 minutes, n=5): no statistical difference
- pulmonary vascular resistance and systemic oxygenation ([5]; inhaled): decreases in pulmonary vascular resistance and improved systemic oxygenation
